Reference: patent publication US8859502B2, “Therapy for MLL-rearranged leukemia” (Celgene Corporation, priority 2010, dated 2014)

Experiments:
[1] = tested on: t(4;11)-positive ALL cells; format: cell-based, human; conditions: for therapeutic index and specificity towards t(4;11)-positive ALL cells: SEM, RS4;11, MLL-AF4 patient cells versus normal bone marrows, FIG. 6
Excerpt: VPA, D. romidepsin, E. MS-275. Error bars represent standard errors of the mean (SEM).

SEM cell line = assay: Proto-oncogene mRNA expression by quantitative real-time PCR after exposure to HDAC inhibitors, SEM; format: cell-based, human
Method: (§1) FIGS. 8A, 8B, 8C, 8D, 8E, 8F and 8G show relative proto-oncogene mRNA expression after exposure to HDAC inhibitors in SEM cell line. FIGS. 8AA, 8BB, 8CC, 8DD, 8EE, 8FF and 8GG show relative proto-oncogene mRNA expression after exposure to HDAC inhibitors in RS4;11 cell line. mRNA expression levels of the proto-oncogenes A. RAN, B. SET, C. […] For RUNX1, PARK7, DIAPH1 and HOXA9 data after 24 hours exposure are presented as well (hatch fill). Expression levels in SEM or RS4;11 were set to 100%.
(§2) Total RNA was reverse transcribed and the obtained cDNA was used to quantify mRNA expression by using quantitative real-time PCR analysis as described in Stam et al., Haematologica 92(11):1565-1568, 2007). […] Per experiment, samples were analyzed in duplicate and all experiments were conducted twice. […]
(§3) To explore the mechanism of action of HDAC inhibitors on induced leukemic cell death in MLL-rearranged ALL, the t(4;11)-positive ALL cell lines SEM and RS4;11 were exposed to various concentrations of TSA, SAHA, VPA, MS-275 and romidepsin for 6, 24 or 48 hours. During these exposures, cell viability was monitored by trypan blue exclusion (FIG. 7). Quantitative real-time PCR was used to determine the mRNA expression levels of MYC, SET, RUNXI, RAN, HOXA9, DIAPHI and PARK7 in the cell lines SEM and RS4;11 during exposure to the different HDAC inhibitors. […]

RS4;11 cell line = assay: Proto-oncogene mRNA expression by quantitative real-time PCR after exposure to HDAC inhibitors, RS4;11; format: cell-based, human; conditions: RS4;11, mRNA by quantitative real-time PCR
Method: as §1, §2, §3

[2] = tested on: healthy hematopoietic bone marrow cells

| SMILES | therapeutic index and specificity towards t(4;11)-positive ALL cells [1] | expression of the selected proto-oncogenes (SEM cell line) | expression of the selected proto-oncogenes (RS4;11 cell line) | in vitro cytotoxicity on the leukemic cell population [1] | effect on healthy hematopoietic bone marrow cells [2] |
| --- | --- | --- | --- | --- | --- |
| Nc1ccccc1NC(=O)c1ccc(CNC(=O)OCc2cccnc2)cc1 [MS-275] | high therapeutic index and a preferred specificity towards targeting t(4;11)-positive ALL cells | – | – | – | – |
| O=C(CCCCCCC(=O)Nc1ccccc1)NO [Vorinostat] | – | consistently repressed most of the selected proto-oncogenes | consistently repressed most of the selected proto-oncogenes | – | – |
| C/C=C1\NC(=O)[C@H]2CSSCC/C=C/[C@H](CC(=O)N[C@H](C(C)C)C(=O)N2)OC(=O)[C@H](C(C)C)NC1=O [romidepsin, (1S,4S,7Z,10S,16E,21R)-7-ethylidene-4,21-bis(1-methylethyl)-2-oxa-12,13-dithia-5,8,20,23-tetrazabicyclo[8.7.6]tricos-16-ene-3,6,9,19,22-pentone] | high therapeutic index and a preferred specificity towards targeting t(4;11)-positive ALL cells | – | – | – | – |
| CC(/C=C/C(=O)NO)=C\[C@@H](C)C(=O)c1ccc(N(C)C)cc1 [trichostatin A] | high therapeutic index and a preferred specificity towards targeting t(4;11)-positive ALL cells | consistently repressed most of the selected proto-oncogenes | consistently repressed most of the selected proto-oncogenes | consistent eradication of the entire leukemic cell population | harmless for healthy hematopoietic bone marrow cells |
